What all share (type): in vivo, mouse
One data set deals with C57BI/6 mice. Description: Lifespan of old (2-year-old) C57BL/6 mice given a diet containing the compound. The protocol: (§1) Briefly, 24-28 mice per intervention were used, with an approximately equal number of males and females. Mice were first assessed with regard to frailty index and gait speed, and then randomized to make sure the experimental and control groups had the same average frailty index and gait speed. Mice were then given a diet containing a compound of interest. […] Mice were monitored daily until they died. A separate cohort of old mice was assessed for frailty index and gait speed.
Interventions were predicted in a screen based on the gene expression longevity signatures that we developed. The predicted interventions were then verified for gene expression responses in human and mouse primary cell culture (hepatocytes) and in live mice (after mice were fed for 1 month with the diets containing these interventions). The interventions that passed these tests were further assessed for the effect on lifespan of 2-year-old C57BI/6 mice. Older mice (2-year-old) were chosen for this experiment in order to mimic the effect of giving interventions to human subjects in their second half of life.
(§2) Briefly, 24-28 mice per intervention were used, with an approximately equal number of males and females. They were first assessed with regard to frailty index and gait speed, and then randomized to make sure the experimental and control groups had the same average frailty index and gait speed. Mice were then given a diet containing a compound of interest. […] Mice were monitored daily until they died. A separate cohort of old mice was assessed for frailty index and gait speed.

Data set [1] deals with C57BL/6 mice. The data set can be described thus: Frailty index of old C57BL/6 mice on compound diet. On the procedure: as §1, §2
Data set [2] has as its system C57BL/6 mice. The data set can be described thus: Gait speed of old C57BL/6 mice on compound diet. Particulars: 31-month-old C57BL/6 male mice. On the procedure: as §1, §2
Data set [3] concerns C57BL/6 mice. Description: Glucose tolerance in old C57BL/6 mice on compound diet. Particulars: old C57BL/6 mice at the dose given in diet (AZD-8055: 23-month-old, treated 2.5 months). The protocol:
23-month-old mice were treated for 2.5 months prior to analyses.

A further data set concerns longevity signatures. The data set can be described thus: GSEA-based association of hepatic gene expression response (RNAseq, UM-HET3 mice on compound diet for 1 month) with longevity signatures. The note with it: UM-HET3 male mice, compound in diet for 1 month, liver RNAseq. The source says: Four-month old UM-HET3 mice were subjected to diets for 1 month, followed by gene expression analyses.
To validate the above approach and predictions, specific gene expression datasets were chosen from the GEO database that correspond to the effect of certain interventions considered to be health- and lifespan-extending or shortening on mouse liver (FIG. 16). […] UM-HET3 mice were then subjected to these compounds for 1 month, at which point the mice were sacrificed and subjected to gene expression analysis. Finally, the association GSEA-based test was applied to validate the findings (FIG. 16).
Second, diets were prepared for 24 of the identified compounds. These diets were administered to mice for 1 month, and ensuing gene expression changes were monitored. […]
For samples corresponding to lifespan-extending interventions, paired-end sequencing with 100 bp read length was performed on illumine HiSeq2000 platform. For samples corresponding to predicted compounds, libraries were prepared as described in (Hashimshony et al., 2016) and sequenced with 100 bp read length option on the Illumina HiSeq2500. […] Processed/cleaned reads were then mapped with STAR (version 2.5.2b) (Dobin et al., 2013) and counted via featureCounts (Liao et al., 2014). […]

In data set [4] the test system is immune cells in the spleen. The data set can be described thus: Population of immune cells in the spleen by FACS. Particulars: 27-month-old C57BI/6 females. The protocol: Population of immune cells in the spleen is not altered by Selumetinib (n=7 for Control, n=12 for Selumetinib). 27-month-old C57BI/6 females were used. Cells were analyzed by FACS: B-cells are CD45+CD19+, T-cells are CD45+CD3+, and myeloid cells are CD45+CD11b+.
Background: In flow cytometry, cells or beads pass a laser one at a time.

“Also recorded” adds a separate entry of the source.

With `COc1ccc(-c2ccc3c(N4CCOCC4)nc(N4C[C@@H](C)O[C@@H](C)C4)nc3n2)cc1CO` [KU-0063794, rel-5-[2-[(2R,6S)-2,6-dimethyl-4-morpholinyl]-4-(4-morpholinyl)pyrido[2,3-d]pyrimidin-7-yl]-2-methoxybenzenemethanol], the Effect on lifespan entry in the data set with C57BI/6 mice (C57BL/6 male mice, given late in life, ad libitum in diet (AZD-8055 20 mg/kg of food, LY294002 600 mg/kg, KU-0063794 10 mg/kg of diet)) was “extend lifespan”. The “Effect on frailty index” value in the data set with C57BL/6 mice [1] (31-month-old C57BL/6 male mice) is on record as “improved”. The “Effect on gait speed” value in the data set on C57BL/6 mice [2] was “improved”. In the data set with C57BL/6 mice [3], the “Effect on glucose tolerance” value is “No effect; also recorded: did not have a significant effect”. Further, in the data set on longevity signatures, the “Association of hepatic gene expression response with longevity signatures” value is “consistent positive association with all lifespan-extending interventions, except for rapamycin”.

As to `Cn1cnc2c(F)c(Nc3ccc(Br)cc3Cl)c(C(=O)NOCCO)cc21` [Selumetinib, 6-(4-Bromo-2-chloroanilino)-7-fluoro-N-(2-hydroxyethoxy)-3-methylbenzimidazole-5-carboxamide], the Effect on lifespan entry in the data set with C57BI/6 mice (C57BL/6 mice (Selumetinib: males and females combined), given late in life, ad libitum (Selumetinib 100 mg/kg of diet, Celastrol 8 mg/kg of food)) is “extends lifespan”; in the data set with C57BI/6 mice (independent cohort of female C57BL/6 mice, Selumetinib 100 mg/kg of diet) it was “extends lifespan”. Besides, the “Effect on frailty index” value in the data set with C57BL/6 mice [1] (31-month-old C57BL/6 female mice) is given as “improves”. Besides, in data set [4], the “Relative populations of immune cells in the spleen (B-cells, T-cells, myeloid cells)” value is recorded as “not altered; also recorded: does not alter”.

As for `C1COC(NC(C2CC2)C2CC2)=N1` [rilmenidine, N-(Dicyclopropylmethyl)-4,5-dihydro-1,3-oxazol-2-amine], in the data set with longevity signatures, the “Association of hepatic gene expression response with longevity signatures” value was “positive association with some of the signatures, including CR and GH deficiency, but not with the signatures associated with the lifespan extension effect”.

The values are drawn from patent US20220249504A1, “LONGEVITY SIGNATURES AND THEIR APPLICATIONS” (The Brigham and Women's Hospital, Inc., priority 2019, published 2022).
